Where two headings read alike, the source gives them in different places.
What was measured:
HSV-2 [1] = experiment: Cutaneous HSV-2 model in hairless guinea pigs, combination cream (Example 15); format: in vivo
[2] = Inflammation or toxicity at treated skin sites (Example 15); settings: 96 hours, alone or in combination
[3] = test system: human foreskin fibroblasts; experiment: Cell proliferation (cytostasis), sulforhodamine staining; format: cell-based; settings: 1,000 cells/well, 96-hours incubation
Procedure: The effects of n-docosanol and n-docosane suspensions on cell proliferation (cytostasis) were quantitated using the sulforhodamine staining assay on cultures of human foreskin fibroblasts incubated in 96-well plates.
Foreskin fibroblasts were plated with or without aliphatic alcohol suspensions or control surfactant suspensions at 1,000 cells/well (FIG. 6A and FIG. 7) or at 30,000 cells/well (FIG. 6B) in 96 well plates. After incubation for 72 hr or 96 hr at 37° C., cells were precipitated with trichloroacetic acid, stained with sulforhodamine and quantitated by measuring the OD540 in a microtiter plate reader.

HSV-2 [4] = experiment: Inhibition of HSV-2 plaque formation in Vero cells
HSV-1 = HSV-1 PFU production in Vero cell cultures; format: cell-based, HSV-1 (MacIntyre strain)
vaccinia virus = experiment: microbe, parasite or virus in culture; format: cell-based, vaccinia virus (WR strain); settings: cultures that lacked PFA; 15 mM n-docosanol
[5] = test system: Varicella Zoster Virus (VZV); experiment: VZV infectious center assay in MRC-5 cells; format: cell-based, human varicella zoster virus (Ellen strain); settings: for IC per Culture × 10^−4: no ACV, medium only 35
[6] = male, hairless, guinea pig, in vivo, 2 day
all cell lines tested = experiment: Cytotoxicity in mammalian cell cultures; settings: read-out: IC50 (cellular toxicity by chain length)
Text: Three assays were used to quantitate the effects of aliphatic alcohols on cell survival and proliferation: 1) counting cells with a hemocytometer and determining the number of cells that exclude trypan blue; 2) measuring the incorporation of ^3H-thymidine into cellular DNA by adding ^3H-thymidine (from New England Nuclear) to the culture medium, lysing the cells with water and harvesting the DNA onto filter paper; and 3) measuring total cellular protein using a sulforhodamine assay adapted for use in 96-well microtiter plates (Skehan et al., J. Natl. Cancer Inst. […] All of these methods are well known cell viability and cytotoxicity assays.

B cell hybridoma (MBI-9) = experiment: 3H-thymidine incorporation into DNA of B cell hybridoma; format: cell-based, murine; settings: Mus musculus, 48 hr incubation, read-out: IC50 estimated by extrapolation
[7] = test system: Early viral protein synthesis; settings: Katz et al. 1991; cited from earlier work
Fetal Foreskin Cells = experiment: Cell viability by trypan blue exclusion, fetal foreskin cells; format: cell-based, human; settings: for Fetal Foreskin Cells No. Viable: 9 mM n-docosanol in 1.4 mM surfactant (4:1 w:w), trypan blue exclusion; for Fetal Foreskin Cells % Control: 9 mM n-docosanol in 1.4 mM surfactant, control = media only
Procedure: Typical data are presented in Table 3, showing that the total number of viable Vero cells and foreskin fibroblasts was unchanged after 24 hr to 72 hr incubation with the aliphatic alcohol suspension.

Vero cells = settings: African green monkey, 9 mM
Cytomegalovirus (CMV) = experiment: CMV infectious center assay in MRC-5 cells; format: cell-based, human cytomegalovirus (Towne strain)
HSV-2 [8] = experiment: Topical treatment of HSV-2 in guinea pig model, number of vesicles (Example 9); format: in vivo, hairless guinea pigs; settings: mean; for Number of Vesicles Day 2: 48 hr post-inoculation; for Number of Vesicles Day 3: 72 hr post-inoculation; for Number of Vesicles Day 4: 96 hr post-inoculation
[9] = Human alphaherpesvirus 2, Vero, read-out: Percent Inhibition of Plaque Formation
[10] = Human betaherpesvirus 5, MRC5, read-out: % Inhibition of infected cells

## CCCCCCCCCCCCCCCCCCCCCCO [n-docosanol]
HSV-2 [1]; 96 hours post-HSV-2-inoculation, cream two times daily, untreated mean 27 vesicles
  reduction of mean vesicle numbers: 63%
HSV-2 [1]; cream two times daily, untreated 698
  mean AUC (mean number of vesicles times hours vesicles were observed): 464 vesicle hours
HSV-2 [1]; vs untreated AUC 698 vesicle hours
  inhibition of AUC: 34%
[2]
  induced inflammation or toxicity: not detected
[3]
  n-docosanol concentration that inhibited proliferation of cells: greater than 3 mM
HSV-2 [4]; 3 mM n-docosanol, without ACV
  fewer plaques than untreated or PLURONIC F-68-treated controls: 40%
HSV-2 [4]; Human alphaherpesvirus 2, Vero, read-out: 50% Inhibition Concentration (mM)
  EC50: 8.6 mM
HSV-2 [4]; Human alphaherpesvirus 2, Vero, read-out: EC50 of plaque formation inhibition, octoxynol (TRITON X-100) suspension
  EC50: ~4.5 mM
HSV-2 [4]; [9]
  inhibition at 1000 µM: 14%
  inhibition at 2000 µM: 40%
  inhibition at 4000 µM: 36%
  inhibition at 8000 µM: 44%
  inhibition at 15000 µM: 66%
HSV-2 [4]; Human alphaherpesvirus 2, Vero, read-out: amount of n-docosanol required for 50% inhibition of plaque production, after increasing the ratio of surfactant to n-docosanol
  EC50: 3 mM
HSV-2 [4]; Human alphaherpesvirus 2, Vero, read-out: amount of n-docosanol required for 50% inhibition of plaque production, before increasing the ratio of surfactant to n-docosanol
  EC50: 15 mM
HSV-2 [4]; Human alphaherpesvirus 2, Vero, read-out: effective concentration required to inhibit plaque formation by 50% (EC50), surfactant suspension, Example 5
  EC50: 9 mM
HSV-2 [4]; Human alphaherpesvirus 2, Vero, read-out: n-docosanol EC50, HSV-2 plaque formation, in conjunction with ACV in the range of 0.2-10 μM
  EC50: 2 to 3 mM
HSV-2 [4]; Human alphaherpesvirus 2, Vero, read-out: n-docosanol EC50, HSV-2 plaque formation, used alone
  EC50: 2 to 3 mM
HSV-2 [4]; octoxynol (TRITON X-100) suspension
  n-docosanol concentrations inhibiting plaque formation relative to octoxynol control: greater than or equal to 2 mM
HSV-1; 15 mM n-docosanol alone, three days post-infection
  fewer HSV-1 PFU than untreated cultures: about 10 fold
HSV-1; Human alphaherpesvirus 1, Vero, read-out: inhibition of PFU production
  inhibition at 3300 µM: 55%
Vaccinia virus
  inhibition of vaccinia virus replication (in words): does not inhibit replication of vaccinia virus
[5]; Human alphaherpesvirus 3, MRC5, MRC-5 cells, read-out: n-docosanol EC50 for inhibition of VZV replication
  EC50: ~10 mM
[5]; Human alphaherpesvirus 3, MRC5, VZV, n-Docosanol 3.3 mM, read-out: % Inhibition of infected cells
  inhibition at 3300 µM: 40%
[5]; Human alphaherpesvirus 3, MRC5, VZV, n-Docosanol 10 mM, read-out: % Inhibition of infected cells
  inhibition at 10000 µM: 57%
[5]; Human alphaherpesvirus 3, MRC5, VZV, n-Docosanol 30 mM, read-out: % Inhibition of infected cells
  inhibition at 30000 µM: 80%
[5]; VZV, n-Docosanol 3.3 mM
  IC per Culture × 10^−4: 21 × 10^−4
[5]; VZV, n-Docosanol 10 mM
  IC per Culture × 10^−4: 15 × 10^−4
[5]; VZV, n-Docosanol 30 mM
  IC per Culture × 10^−4: 7 × 10^−4
[6]
  Irritation Score Day 2: 0
All cell lines tested
  IC50: > 15 mM
B cell hybridoma (MBI-9)
  IC50: ~20 mM
[7]
  inhibition of early viral protein synthesis: more than 80%
Fetal Foreskin Cells; 24 hr
  Fetal Foreskin Cells No. Viable: 2.41 × 10^5
  Fetal Foreskin Cells % Control: 131%
Fetal Foreskin Cells; 48 hr
  Fetal Foreskin Cells No. Viable: 2.78 × 10^5
  Fetal Foreskin Cells % Control: 118%
Fetal Foreskin Cells; 72 hr
  Fetal Foreskin Cells No. Viable: 2.72 × 10^5
  Fetal Foreskin Cells % Control: 118%
Vero cells; 24 h
  Vero Cells % Control: 101%
  Vero Cells No. Viable: 7.48 × 10^5
Vero cells; 48 h
  Vero Cells % Control: 137%
  Vero Cells No. Viable: 8.69 × 10^5
Vero cells; 72 h
  Vero Cells % Control: 120%
  Vero Cells No. Viable: 8.61 × 10^5
Cytomegalovirus (CMV); [10]
  inhibition at 3300 µM: 20%
  inhibition at 10000 µM: 60%
  inhibition at 30000 µM: 85%
Cytomegalovirus (CMV); Human betaherpesvirus 5, MRC5, read-out: n-docosanol EC50 for inhibition of CMV replication, MRC-5 cells
  EC50: ~10 mM
HSV-2 [8]; 10% w/w cream topically 3X/day from 24 hr post-inoculation
  Number of Vesicles Day 2: 40
HSV-2 [8]; 10% w/w cream topically 3X/day
  Number of Vesicles Day 3: 12
  Number of Vesicles Day 4: 3
HSV-2 [8]; 10% w/w cream topically 5X/day
  Number of Vesicles Day 2: 43
  Number of Vesicles Day 3: 5
  Number of Vesicles Day 4: 3

Reference: patent publication US6440980B1, “Synergistic inhibition of viral replication by long-chain hydrocarbons and nucleoside analogs” (Avanir Pharmaceuticals, priority 1996, dated 2002)
